The values that follow come from US5602161A, “Tetrazolylphenyl pivalate derivatives and medicinal composition containing the same as effective component” (Wakamoto Pharmaceutical Co., Ltd., priority 1994, dated 1997).

Data set [1] concerns the target T1, human neutrophil elastase (Homo sapiens, UniProt P08246).
T1 construct: using elastase from human neutrophil or human sputum; from tissue; host or cells: human neutrophil
T1 sequence (P08246 30-247 limits assumed): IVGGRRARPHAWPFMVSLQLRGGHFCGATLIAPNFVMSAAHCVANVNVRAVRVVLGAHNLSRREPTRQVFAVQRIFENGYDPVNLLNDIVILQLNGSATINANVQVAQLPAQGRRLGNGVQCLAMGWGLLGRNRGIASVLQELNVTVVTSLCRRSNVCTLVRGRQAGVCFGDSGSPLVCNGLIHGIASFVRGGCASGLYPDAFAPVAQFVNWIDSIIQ
In words: Inhibitory effect on elastase (human neutrophil), spectrophotometric assay with MeOSuc-Ala-Ala-Pro-Val-pNA. The format is biochemical. The settings on record: N: human neutrophil elastase; pH 8.0, 37° C.; read-out: IC50.
Method: (§1) Namely, it is a spectrophotometric assay using the synthesized substrate, methoxysuccinyl-alanyl-alanyl- prolyl-valyl-p-nitroanilide(MeOSuc-Ala-Ala-Pro-Val-pNA, Cambridge research biochemical Co.) which has high specificity on neutrophil elastase.
(§2) 20 μl of a test compound of various concentrations and 20 μl of enzyme solution (13 unit/ml) were added to 400 μl of 0.1M sodium phosphate buffer (pH 8.0). The mixture was incubated at 37° C. for 5 min, and then 20 μl of the substrate was added to the mixture in a final volume of 460 μl. The reaction was conducted by incubating thus obtained mixture at 37° C. for 20 min. The reaction was stopped by the addition of 300 μl of 20% acetic acid into the reaction mixture, and then p-nitroanilide released was measured by the spectrophotometrically at 405 nm.
(§3) Inhibition percents of the test compounds were calculated by the following equation:
(§4) Inhibition %=[1-(OD 405 nm value of the testing sample-background)/(OD 405 nm value of the control-background)]×100

The next data set deals with T2, human sputum elastase (Homo sapiens, UniProt P08246).
T2 sequence (P08246 30-247 limits assumed): T1 sequence (P08246 30-247 limits assumed)
In words: Inhibitory effect on elastase (human sputum), spectrophotometric assay with MeOSuc-Ala-Ala-Pro-Val-pNA. The format is biochemical. Particulars: S: human sputum elastase; pH 8.0, 37° C.; read-out: IC50.

Data set [2] in a line: Cytotoxicity test (MTT, three days). The settings on record: mouse, l1210 cells, read-out: Survival rate; for viability at 72 h, 1 µM: final concentration 1 μM; for viability at 72 h, 5 µM: final concentration 5 μM; for viability at 72 h, 10 µM: final concentration 10 μM. It is filed as cell-based. The procedure: L1210 (lymphocytic leukemia, mouse) cells in a logarithmic growth phase were collected and washed twice with HBSS (Hanks' balanced salt solution). The L1210 cells were resuspended at 5.0×10^4 cells/ml in RPMI 1640 medium containing 10% heat-inactivated fetal bovine serum. The cell suspension was dispensed in 100 μl aliquots into 96 well multi-plate. Each of compounds to be tested was dissolved in dimethylsulfoxide at a concentration of 10 mM. The solutions were stepwise diluted with RPMI 1640 solution containing 10% heat-inactivated fetal bovine serum. Each of the diluted samples was dispensed in an amount of 10 μl well in the 96 well multi-plate containing L1210 cells and incubated for three days at 37° C. in humidified 5% CO2 -air mixture. To each of the wells, 10 μl of MTT (3-(4,5-dimethylthiazol-2-yl)-2,5-diphenyltetrazolium bromide)(5 mg/ml in phosphate buffer free of Ca^2+ and Mg^2+) was added. Cultivation was continued for additional five hours at 37° C. in humidified 5% CO2 -air mixture. To each of the wells, 100 μl of 20% SDS (sodium dodecyl sulfate) in 0.01N HCl was added to solubilize the MTT formazan.
Absorbance was measured at 630 nm as a reference wavelength and 570 nm as a measuring wavelength using Corona Electric MTP22 Microplate Photometer. The measurement was conducted three times for each of the samples to obtain an average value and a standard deviation. Survival rate was calculated by the following equation:
Survival rate (5)=[(absorbance of test sample)/(absobance of […]

Structures can show the parent of a compound that is named as a salt.

Method for human sputum elastase: as §1, §2, §3, §4

For `CC(C)(C)C(=O)Oc1ccc(-c2nnn(CC(=O)Nc3ccccc3)n2)cc1` [Example 11, 4-[2-(N-Phenylcarbamoylmethyl)tetrazol-5-yl]phenyl pivalate], in data set [1], the IC50 (as a rule, the concentration that gives 50% inhibition) came out at 850 nM.

For the compound `CC(C)(C)C(=O)Oc1ccc(-c2nnn(CC(=O)N3CCCCC3)n2)cc1` [Example 12, 4-[2-(Piperidinocarbonylmethyl)tetrazol-5-yl]phenyl pivalate], the IC50 in data set [1] came out at 510 nM.

On to `COc1ccc(Cn2nnc(-c3ccc(OC(=O)C(C)(C)C)cc3)n2)cc1` [Example 13, 4-[2-(4-Methoxybenzyl)tetrazol-5-yl]phenyl pivalate], for which the IC50 in data set [1] stood at 72 nM.

Consider `CC(C)(C)C(=O)Oc1ccc(-c2nnn(CCc3ccccc3)n2)cc1` [Example 14, 4-[2-(2-Phenylethyl)tetrazol-5-yl]phenyl pivalate], for which the IC50 in data set [1] worked out at 76 nM.

On to `CC(C)(C)C(=O)Oc1ccc(-c2nnn(COCc3ccccc3)n2)cc1` [Example 15, 4-[2-(Benzyloxymethyl)tetrazol-5-yl]phenyl pivalate], for which, in data set [1], the IC50 was 94 nM.

On to `CC(C)(C)C(=O)Oc1ccc(-c2nnn(Cc3ccc(C(F)(F)F)cc3)n2)cc1` [Example 17, 4-[2-(4-Trifluoromethylbenzyl)tetrazol-5-yl]phenyl pivalate], for which the half-maximal inhibitory concentration (IC50) in data set [1] was 100 nM.

For the compound `COc1ccc(COc2ccc(Cn3nnc(-c4ccc(OC(=O)C(C)(C)C)cc4)n3)cc2)cc1` [Example 18, 4-[2-[4-(4-Methoxybenzyloxy)benzyl]tetrazol-5-yl]phenyl pivalate], the IC50 in data set [1] came to 17 nM; on human sputum elastase it was 160 nM.

As for `COc1ccc(CCCn2nnc(-c3ccc(OC(=O)C(C)(C)C)cc3)n2)cc1` [Example 20, 4-[2-[3-(4-Methoxyphenyl)propyl]tetrazol-5-yl]phenyl pivalate], in data set [1], the IC50 was 90 nM.

For `COc1ccc(CCCCn2nnc(-c3ccc(OC(=O)C(C)(C)C)cc3)n2)cc1` [Example 21, 4-[2-[4-(4-Methoxyphenyl)butyl]tetrazol-5-yl]phenyl pivalate], the IC50 in data set [1] stood at 62 nM.

`COc1ccc(COCCCCn2nnc(-c3cccc(OC(=O)C(C)(C)C)c3)n2)cc1` [Example 23, 3-[2-[4-(4-Methoxybenzyloxy)butyl]tetrazol-5-yl]phenyl pivalate]: in data set [2], the viability at 72 h, 1 µM is 104%; the viability at 72 h, 5 µM amounted to 102%; the viability at 72 h, 10 µM stood at 94.3%. Further, in data set [1], the IC50 worked out at 22 nM.

As to `COC(=O)c1ccccc1Cn1nnc(-c2ccc(OC(=O)C(C)(C)C)cc2)n1` [Example 24, 4-[2-(2-Methoxycarbonylbenzyl)tetrazol-5-yl]phenyl pivalate], in data set [1], the IC50 amounted to 100 nM.

In the case of `COc1ccc(COCCn2nnc(-c3ccc(OC(=O)C(C)(C)C)cc3)n2)cc1` [Example 41, 4-[2-[2-(4-Methoxybenzyloxy)ethyl]tetrazol-5-yl]phenyl pivalate], the IC50 in data set [1] was 65 nM.

Take `COc1ccc(CCn2nnc(-c3ccc(OC(=O)C(C)(C)C)cc3)n2)cc1` [Example 44, 4-[2-[2-(4-Methoxyphenyl)ethyl]tetrazol-5-yl]phenyl pivalate]: in data set [1], the IC50 amounted to 85 nM.

Consider `CN(C)CCOc1ccc(Cn2nnc(-c3ccc(OC(=O)C(C)(C)C)cc3)n2)cc1` [Example 46, 4-[2-[4-(2-Dimethylaminoethoxy)benzyl]tetrazol-5-yl]phenyl pivalate Hydrochloride], for which the IC50 in data set [1] is 89 nM.

In the case of `COc1cc(-c2nnn(Cc3ccc(N(C)C)cc3)n2)ccc1OC(=O)C(C)(C)C` [Example 48, 4-[2-[4-(Dimethylamino)benzyl]tetrazol-5-yl]-2-methoxyphenyl pivalate], in data set [2], the viability at 72 h, 1 µM came out at 99.4%; the viability at 72 h, 5 µM amounted to 94.6%; the viability at 72 h, 10 µM worked out at 86.1%. Further, at human sputum elastase, the IC50 is 700 nM.

Regarding `Cc1cc(-c2nnn(Cc3ccc(N(C)C)cc3)n2)ccc1OC(=O)C(C)(C)C` [Example 49, 4-[2-[4-(Dimethylamino)benzyl]tetrazol-5-yl]-2-methylphenyl pivalate], in data set [2], the viability at 72 h, 1 µM was 103%; the viability at 72 h, 5 µM worked out at 105%; the viability at 72 h, 10 µM is 110%. Moreover, the IC50 at human sputum elastase came to 700 nM.

In the case of `CC(C)(C)C(=O)Oc1ccc(-c2nnn(Cc3ccc(C(=O)O)cc3)n2)cc1` [Example 54, 4-[5-(4-Pivaloyloxyphenyl)tetrazol-2-ylmethyl]benzoic acid], in data set [2], the viability at 72 h, 1 µM worked out at 101%; the viability at 72 h, 5 µM stood at 107%; the viability at 72 h, 10 µM is 100%. For the same compound, the IC50 at human sputum elastase came to 56 nM.

Take `CC(C)(C)C(=O)Oc1ccc(-c2nnn(Cc3ccccc3C(=O)NCC(=O)O)n2)cc1` [Example 63, N-[2-[5-(4-Pivaloyloxyphenyl)tetrazol-2-ylmethyl]benzoyl]glycine]: in data set [2], the viability at 72 h, 1 µM worked out at 105%; the viability at 72 h, 5 µM turned out to be 103%; the viability at 72 h, 10 µM is 100%. The IC50 in data set [1] amounted to 300 nM.

On to `CC(C)[C@H](NC(=O)c1ccc(Cn2nnc(-c3ccc(OC(=O)C(C)(C)C)cc3)n2)cc1)C(=O)O` [Example 67, N-[4-[5-(4-Pivaloyloxyphenyl)tetrazol-2-ylmethyl]benzoyl]-L-valine], for which, in data set [2], the viability at 72 h, 1 µM turned out to be 92.2%; the viability at 72 h, 5 µM was 100%; the viability at 72 h, 10 µM came to 90.1%. For the same compound, the IC50 at human sputum elastase was 130 nM.

With `CC(C)(C)C(=O)Oc1ccc(-c2nnn(C(C(=O)O)c3ccccc3)n2)cc1` (stereo not shown) [Example 69, 2-Phenyl-2-[5-(4-pivaloyloxyphenyl)tetrazol-2-yl]acetic acid], in data set [2], the viability at 72 h, 1 µM stood at 96.7%; the viability at 72 h, 5 µM stood at 105%; the viability at 72 h, 10 µM was found to be 101%. The IC50 at human sputum elastase amounted to 820 nM.

With `CC(C)(C)C(=O)Oc1ccc(-c2nnn(CCCCCO)n2)cc1` [Example 74, 4-[2-(5-Hydroxypentyl)tetrazol-5-yl]phenyl pivalate], the IC50 in data set [1] stood at 98 nM.

With `CC(C)(C)C(=O)Oc1ccc(-c2nnn(Cc3ccc(O)cc3)n2)cc1` [Example 75, 4-[2-(4-Hydroxybenzyl)tetrazol-5-yl]phenyl pivalate], the IC50 in data set [1] was 80 nM.

For the compound `CC(C)(C)C(=O)Oc1ccc(-c2nnn(Cc3ccccc3N)n2)cc1` [Example 78, 4-[2-(2-Aminobenzyl)tetrazol-5-yl]phenyl pivalate], in data set [2], the viability at 72 h, 1 µM came to 103%; the viability at 72 h, 5 µM was 107%; the viability at 72 h, 10 µM worked out at 93.7%. Also, the IC50 on human sputum elastase was 91 nM.

`CC(C)(C)C(=O)Oc1ccc(-c2nnn(CCCCC(=O)O)n2)cc1` [Example 93, 5-[5-(4-Pivaloyloxyphenyl)tetrazol-2-yl]valeric acid]: in data set [1], the IC50 came out at 520 nM.
